In one experiment the target is T1, M4 muscarinic receptor (Homo sapiens, UniProt P08173).
T1 construct: expressed in transfected cells; host or cells: CHO (M4-CHO)
T1 sequence (P08173 1-479): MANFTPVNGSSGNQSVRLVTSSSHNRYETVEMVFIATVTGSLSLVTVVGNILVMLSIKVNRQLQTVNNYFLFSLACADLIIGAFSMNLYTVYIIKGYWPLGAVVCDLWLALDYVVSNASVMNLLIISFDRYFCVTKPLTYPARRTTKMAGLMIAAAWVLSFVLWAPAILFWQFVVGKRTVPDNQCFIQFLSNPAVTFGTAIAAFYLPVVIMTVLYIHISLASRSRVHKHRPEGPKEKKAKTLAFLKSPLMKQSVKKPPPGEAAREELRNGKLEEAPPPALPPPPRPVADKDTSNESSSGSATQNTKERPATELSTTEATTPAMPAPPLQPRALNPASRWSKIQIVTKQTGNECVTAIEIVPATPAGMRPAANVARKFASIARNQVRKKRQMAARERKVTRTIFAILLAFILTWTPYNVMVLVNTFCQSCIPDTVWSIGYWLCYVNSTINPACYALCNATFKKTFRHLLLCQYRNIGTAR
Put plainly: Functional mobilization of intracellular calcium (FLIPR) in M4-CHO cells. The format is cell-based. The following applies: Table 4; for Emax: 100% efficacy is the maximum response obtained with the Carbachol control; for M4 Activity: modulating M4 receptor. The procedure, abridged: (§1)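 Intracellular calcium rise is measured by FLIPR fluorescence over 60 sec in CHO cells carrying human M1 or M4 receptors. Compounds are tested alone as agonists, or pre-incubated 15 min (or co-applied) ahead of carbachol at its EC80 to detect inhibition.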

Another experiment has as its target T2, M1 muscarinic receptor (Homo sapiens, UniProt P11229).
T2 construct: expressed in transfected cells; host or cells: CHO (M1-CHO)
T2 sequence (P11229 1-460): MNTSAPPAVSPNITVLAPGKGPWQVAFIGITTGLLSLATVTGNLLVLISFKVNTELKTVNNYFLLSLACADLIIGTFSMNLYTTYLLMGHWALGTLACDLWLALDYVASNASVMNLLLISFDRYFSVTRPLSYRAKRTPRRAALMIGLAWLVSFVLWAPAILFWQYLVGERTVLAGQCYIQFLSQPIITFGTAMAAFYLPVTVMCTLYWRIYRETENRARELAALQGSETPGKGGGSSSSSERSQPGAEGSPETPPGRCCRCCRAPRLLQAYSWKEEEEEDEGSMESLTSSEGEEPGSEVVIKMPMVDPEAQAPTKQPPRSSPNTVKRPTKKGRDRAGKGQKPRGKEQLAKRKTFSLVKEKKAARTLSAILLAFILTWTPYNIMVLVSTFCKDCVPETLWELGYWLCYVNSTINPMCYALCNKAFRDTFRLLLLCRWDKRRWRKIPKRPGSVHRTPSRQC
Put plainly: Functional mobilization of intracellular calcium (FLIPR) in M1-CHO cells. The format is cell-based. The settings on record: Table 4; for Emax: 100% efficacy is the maximum response obtained with the Carbachol control; for M1 Activity: modulating M1 receptor. The essentials:
as §1

Turning to `O=C(O)C1CC2(CCN(C3CCCCC3)CC2)c2ccccc21` (stereo not drawn) [compound 612], on M4 muscarinic receptor, the Emax fell in the range of 25 to 100% and the “M4 Activity” value is given as “x (activity was measured to be greater than 5.0 μM)”. In addition, on M1 muscarinic receptor, the Emax was under 25% and the “M1 Activity” value is reported as “x (activity was measured to be greater than 5.0 μM)”.

As to `CC#CC(C)OC(=O)N1CCC(N2CCC3(CC2)CN(C(=O)N(C)C)c2ccc(F)cc23)CC1` (stereo not drawn) [compound 614], on M4 muscarinic receptor, the Emax lay within 25 to 100% and the “M4 Activity” value was “xxx (activity was measured to be less than 2.0 μM)”. For the same compound, on M1 muscarinic receptor, the Emax was 25 to 100% and the “M1 Activity” value is “xxx (activity was measured to be less than 2.0 μM)”.

Regarding `CCOC(=O)N1CCC(N2CCC3(CC2)CN(C(C)=O)c2cccc(C(F)(F)F)c23)CC1` [compound 615], at M4 muscarinic receptor, the Emax was under 25%; the “M4 Activity” value is “xx (activity was measured to be between 2.0 μM and 5.0 μM)”. On M1 muscarinic receptor, the Emax was 25 to 100% and the “M1 Activity” value is listed as “xxx (activity was measured to be less than 2.0 μM)”.

`CC(=O)NC1CCC2(CCN(CC3CCOCC3)CC2)c2ccccc21` (stereo not drawn) [compound 616]: at M4 muscarinic receptor, the Emax was 25 to 100% and the “M4 Activity” value is listed as “x (activity was measured to be greater than 5.0 μM)”. Further, on M1 muscarinic receptor, the Emax is over 100% and the “M1 Activity” value was “xxx (activity was measured to be less than 2.0 μM)”.

For `CN(C)C(=O)N[C@H]1CCC2(CCN(C3CCCCCC3)CC2)c2ccccc21` [compound 617], on M4 muscarinic receptor, the Emax is over 100% and the “M4 Activity” value was “xxx (activity was measured to be less than 2.0 μM)”. Moreover, at M1 muscarinic receptor, the Emax lay within 25 to 100%; the “M1 Activity” value is “xx (activity was measured to be between 2.0 μM and 5.0 μM)”.

On to `CCC=CCOC(=O)N1C2CCC1CC(N1CCC3(CC1)CN(C(C)=O)c1ccccc13)C2` (stereo not drawn) [compound 618], for which, at M4 muscarinic receptor, the Emax is 25 to 100% and the “M4 Activity” value was “xxx (activity was measured to be less than 2.0 μM)”. On M1 muscarinic receptor, the Emax fell in the range of 25 to 100% and the “M1 Activity” value was “xxx (activity was measured to be less than 2.0 μM)”.

As for `CN(C)C(=O)N1CC2(CCN(C3CCN(C(=O)c4ccon4)CC3)CC2)c2cc(F)ccc21` [compound 619], at M4 muscarinic receptor, the Emax fell in the range of 25 to 100% and the “M4 Activity” value is given as “xxx (activity was measured to be less than 2.0 μM)”. For the same compound, at M1 muscarinic receptor, the Emax lay within 25 to 100%; the “M1 Activity” value was “xx (activity was measured to be between 2.0 μM and 5.0 μM)”.

As to `CCCC#CCOC(=O)N1CCC(N2CCC3(CC2)CN(C(C)=O)c2ccccc23)CC1` [compound 620], on M4 muscarinic receptor, the Emax was under 25% and the “M4 Activity” value is recorded as “x (activity was measured to be greater than 5.0 μM)”. Besides, at M1 muscarinic receptor, the Emax is 25 to 100% and the “M1 Activity” value is on record as “x (activity was measured to be greater than 5.0 μM)”.

With `O=C1CCCCC1N1CC2(CCN(C3CC4CCC(C4)C3)CC2)c2cc(F)ccc21` (stereo not drawn) [compound 621], at M4 muscarinic receptor, the Emax fell in the range of 25 to 100% and the “M4 Activity” value was “xxx (activity was measured to be less than 2.0 μM)”. At M1 muscarinic receptor, the Emax is 25 to 100%; the “M1 Activity” value was “xx (activity was measured to be between 2.0 μM and 5.0 μM)”.

Regarding `Cc1ccc2c(c1)C1(CCN(CC3CC4CCC(C4)C3)CC1)CN2` (stereo not drawn) [compound 622], at M4 muscarinic receptor, the Emax was under 25% and the “M4 Activity” value was “x (activity was measured to be greater than 5.0 μM)”. Besides, on M1 muscarinic receptor, the Emax was under 25% and the “M1 Activity” value is “x (activity was measured to be greater than 5.0 μM)”.

As to `CC(=O)N1CC2(CCN(C3CC4CCC(C3)N4C(=O)O[C@H]3CCOC3)CC2)c2ccccc21` (stereo partly drawn) [compound 623], at M4 muscarinic receptor, the Emax fell in the range of 25 to 100% and the “M4 Activity” value is “xxx (activity was measured to be less than 2.0 μM)”. Also, at M1 muscarinic receptor, the Emax fell in the range of 25 to 100% and the “M1 Activity” value is given as “xxx (activity was measured to be less than 2.0 μM)”.

As for `CCC(C)(C)C1CCC(N2CCC3(CC[C@H](NC(C)=O)c4ccccc43)CC2)CC1` (stereo partly drawn) [compound 624], on M4 muscarinic receptor, the Emax is under 25% and the “M4 Activity” value is on record as “x (activity was measured to be greater than 5.0 μM)”. Further, on M1 muscarinic receptor, the Emax lay within 25 to 100% and the “M1 Activity” value is “xxx (activity was measured to be less than 2.0 μM)”.

On to `CN(C)C(=O)N1CC2(CCN(C[C@@H]3CCN(C(=O)OCC(F)F)C3)CC2)c2cc(F)ccc21` [compound 625], for which, at M4 muscarinic receptor, the Emax is over 100% and the “M4 Activity” value is reported as “xxx (activity was measured to be less than 2.0 μM)”. Also, on M1 muscarinic receptor, the Emax lay in the range of 25 to 100% and the “M1 Activity” value is on record as “xxx (activity was measured to be less than 2.0 μM)”.

Regarding `CCOC(=O)N1CCC(N2CCC3(CC2)CN(C(C)=O)c2ccccc23)CC1` [compound 626], at M4 muscarinic receptor, the Emax lay within 25 to 100% and the “M4 Activity” value is recorded as “xxx (activity was measured to be less than 2.0 μM)”. At M1 muscarinic receptor, the Emax fell in the range of 25 to 100% and the “M1 Activity” value is given as “xxx (activity was measured to be less than 2.0 μM)”.

Take `CS(=O)(=O)N[C@H]1CCC2(CCN(CC3CC4C=CC3C4)CC2)c2ccccc21` (stereo partly drawn) [compound 627]: on M4 muscarinic receptor, the Emax lay in the range of 25 to 100% and the “M4 Activity” value is on record as “xxx (activity was measured to be less than 2.0 μM)”. In addition, at M1 muscarinic receptor, the maximum response (Emax) is 25 to 100% and the “M1 Activity” value is given as “xxx (activity was measured to be less than 2.0 μM)”.

With `COC(=O)N1CCCC(N2CCC3(CC2)CN(C(=O)N(C)C)c2ccc(F)cc23)CC1` (stereo not drawn) [compound 628], at M4 muscarinic receptor, the Emax lay within 25 to 100% and the “M4 Activity” value is “xxx (activity was measured to be less than 2.0 μM)”. On M1 muscarinic receptor, the Emax lay in the range of 25 to 100% and the “M1 Activity” value is “xxx (activity was measured to be less than 2.0 μM)”.

Take `CCOC(=O)N1CCC(N2CCC3(CC2)CN(C(C)=O)c2c(-c4ccc(C(N)=O)cc4)cccc23)CC1` [compound 629]: on M4 muscarinic receptor, the Emax was in the range of 25 to 100%; the “M4 Activity” value was “xx (activity was measured to be between 2.0 μM and 5.0 μM)”. Also, on M1 muscarinic receptor, the Emax fell in the range of 25 to 100%; the “M1 Activity” value is “xx (activity was measured to be between 2.0 μM and 5.0 μM)”.

In the case of `CCCOC(=O)N1CCC(N2CCC3(CC2)CN(C(C)=O)c2ccc(F)cc23)C1` (stereo not drawn) [compound 632], at M4 muscarinic receptor, the Emax was under 25% and the “M4 Activity” value is reported as “x (activity was measured to be greater than 5.0 μM)”. Moreover, on M1 muscarinic receptor, the Emax was under 25% and the “M1 Activity” value is reported as “x (activity was measured to be greater than 5.0 μM)”.

In the case of `CN(C)C(=O)N1CC2(CCN(C3CCN(C(=O)CCC(F)(F)F)CC3)CC2)c2cc(F)ccc21` [compound 633], on M4 muscarinic receptor, the Emax is under 25% and the “M4 Activity” value was “x (activity was measured to be greater than 5.0 μM)”. Also, on M1 muscarinic receptor, the Emax was 25 to 100%; the “M1 Activity” value was “xx (activity was measured to be between 2.0 μM and 5.0 μM)”.

Regarding `CC(=O)N1CC2(CCN(C3CCN(C(=O)OC(C)C)C3)CC2)c2cc(F)ccc21` (stereo not drawn) [compound 634], at M4 muscarinic receptor, the Emax is under 25% and the “M4 Activity” value was “x (activity was measured to be greater than 5.0 μM)”. At M1 muscarinic receptor, the Emax is under 25% and the “M1 Activity” value is listed as “x (activity was measured to be greater than 5.0 μM)”.

`CC(=O)N[C@H]1CCC2(CCN(CC3CCC3)CC2)c2ccccc21` [compound 636]: on M4 muscarinic receptor, the Emax is 25 to 100% and the “M4 Activity” value is given as “xxx (activity was measured to be less than 2.0 μM)”. At M1 muscarinic receptor, the Emax was 25 to 100% and the “M1 Activity” value is “xxx (activity was measured to be less than 2.0 μM)”.

The record behind these values is patent US7786141B2 (Vertex Pharmaceuticals Incorporated, priority 2004, dated 2010).
